Test systems include U-251; A549; SNB-75; OVCAR-4; SK-MEL-2; MOLT-4; SF-539; HOP-62; OVCAR-5; HCT-15; RXF 393; NCI-H23; OVCAR-8; UACC-257; SF-295; Malme-3M; TK-10; LOX IMVI.
Holding throughout (assay): DTP human tumour cell line panel, 48 h

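Tested at 5 concentrations; 48 h exposure; 96-well plates; endpoints linearly interpolated, else capped at highest concentration. The concentration for 50% growth inhibition is given as GI50.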 Calls of active or inactive are those of the source. No stated cut-off is given here; in the data, active = GI50 up to about 1.1 µM and inactive = higher.

Usually GI50 stands for the concentration giving 50% growth inhibition. Regarding `COC(=O)C(C)(C)OCc1ccc(C2NC(=O)N(c3cccc(Cl)c3)C(=O)N2c2cccc(Cl)c2)cc1` (configuration not stated), the GI50 in the assay on U-251 was 58.5 µM (inactive); in the assay with A549, 35.2 µM (inactive); in the assay on SNB-75, 0.34 µM (active); with OVCAR-4 it was 57.5 µM (inactive); in the assay on SK-MEL-2 it was 52.8 µM (inactive); in the assay with MOLT-4, 8.07 µM (inactive). In addition, the GI50 was 50.1 µM (inactive) with SF-539; 99.8 µM (inactive) with HOP-62; > 100 µM (inactive) in the assay with OVCAR-5; 19.6 µM in the assay with HCT-15; 26.4 µM (inactive) in the assay with RXF 393; 1.26 µM (inactive) with NCI-H23. The figures for the GI50 in the assay with OVCAR-8, with UACC-257 and in the assay with SF-295 were 32.6 µM (inactive), 31.8 µM (inactive) and 31 µM (inactive), respectively.
On to `Cn1cc(NC(=O)c2cc(NC(=O)CCCCCCCCCCC(=O)Nc3cc(C(=O)Nc4cc(C(=O)NCCC(=N)N)n(C)c4)n(C)c3)cn2C)cc1C(=O)NCCC(=N)N`, for which the GI50 in the assay on U-251 is 33 µM (inactive); in the assay on A549, 22.2 µM (inactive); with SNB-75, > 100 µM (inactive); in the assay on OVCAR-4, 41.4 µM (inactive); with SK-MEL-2, 35.8 µM (inactive); with MOLT-4, 45.9 µM (inactive). Besides, the GI50 in the assay with Malme-3M is 2.18 µM (inactive); with SF-539 it was 47.6 µM (inactive); in the assay with HOP-62 it was 25.9 µM (inactive); with OVCAR-5 it was 67.3 µM (inactive); with HCT-15, 36.6 µM; with RXF 393 it was 17.8 µM (inactive). Moreover, the GI50 is 29.4 µM (inactive) in the assay with TK-10; 32 µM (inactive) with NCI-H23; 20.3 µM (inactive) in the assay on OVCAR-8; 7.8 µM (inactive) in the assay on UACC-257; 50.8 µM (inactive) with SF-295; 40.4 µM (inactive) in the assay on LOX IMVI.
Consider `COC(=O)CCSC(=O)Nc1ccc(/N=N/c2ccccc2)cc1`, for which the GI50 was 37.5 µM (inactive) in the assay with U-251; 76.4 µM (inactive) in the assay on A549; 31 µM (inactive) in the assay on SNB-75; 30.4 µM (inactive) in the assay with OVCAR-4; 27.2 µM (inactive) with MOLT-4; > 100 µM (inactive) in the assay with Malme-3M. For the same compound, the GI50 was > 100 µM (inactive) in the assay on SF-539; > 100 µM (inactive) in the assay on HOP-62; 71.1 µM (inactive) with OVCAR-5; 36.1 µM in the assay with HCT-15; > 100 µM (inactive) in the assay on RXF 393; 61.8 µM (inactive) in the assay on TK-10. In addition, the GI50 with NCI-H23 was 34.2 µM (inactive); in the assay on OVCAR-8, 45.8 µM (inactive); in the assay on UACC-257, 56.5 µM (inactive); in the assay with SF-295, 47.9 µM (inactive); in the assay with LOX IMVI, 40.5 µM (inactive).
In the case of `CCOc1ccccc1N1C(=O)C(=O)C(c2nc3ccccc3s2)C(=O)C1=O`, the GI50 in the assay on U-251 was 49.3 µM (inactive); in the assay on A549, 20 µM (inactive); in the assay on SNB-75, 23.8 µM (inactive); with OVCAR-4, 3.48 µM (inactive); with SK-MEL-2 it was > 100 µM (inactive); with Malme-3M, 33.8 µM (inactive). The GI50 was > 100 µM (inactive) in the assay on SF-539; 46.8 µM (inactive) in the assay with HOP-62; > 100 µM (inactive) in the assay on OVCAR-5; 76.9 µM in the assay on HCT-15; > 100 µM (inactive) in the assay on RXF 393; 24.5 µM (inactive) in the assay with TK-10. Moreover, the GI50 with NCI-H23 was > 100 µM (inactive); in the assay with OVCAR-8 it was 41.5 µM (inactive); with UACC-257, > 100 µM (inactive); with SF-295 it was 41.7 µM (inactive); with LOX IMVI it was 55.5 µM (inactive).

Values taken from ChEMBL document CHEMBL1201862, “PubChem BioAssay data set” (2004).
